Experimental findings from patent EP0185130A1, “5-Alkoxy-2,4,6-triodo or tribromo-isophthalic-acid derivatives, process for their preparation and X-ray contrast agents containing them” (BRACCO INDUSTRIA CHIMICA Società per Azioni, priority 1984, dated 1986) are described below.

Values after ≈ are worked out from the molar mass of the structure shown. Read-outs that look alike come from different tables or passages of the source.

The nature of series [1]: Heat sterilisation of aqueous injection solutions (stability). Particulars: 120 °C for 30 minutes. Format: physicochemical. From the text:
Beispielsweise werden die nach den vorstehenden Beispielen erhaltenen reinen 5-Alkoxy-2,4,6-trijodisopthalsäurediamide unter sterilen Bedingungen in der gewünschten Menge bidestilliertem Wasser gelöst, filtriert, unter Zusatz von geringen Mengen EDTA-Na2 und Puffersubstanzen auf pH 6,9 bis 7,1 eingestellt, in Serumflaschen oder Ampullen abgefüllt und anschliessend sterilisiert.

The nature of a further series: Water solubility. The format is physicochemical. Particulars: for solubility: water, read-out: Wasserlöslichkeit.
[2] abbreviates: result in words, no temperature stated.

Take “5-(3,6,9-Trioxadecyl)oxy-2,4,6-tribromisophthalsäure-bis(1,3-dihydroxy- isopropylamid) [Beispiel 7]”: in series [1], the “sterilisieren durch Erhitzen” value is listed as “ohne Schwierigkeiten”. Besides, in the series “Water solubility” (bei 20 °C), the Wasserlöslichkeit was > 100 % (g/v).
Consider “5-(3,6,9-Triuxadecyl)oxy-2,4,6-trijodisophthalsäure-bis(1,3-dihydroxy- isopropylamid) [Beispiel 2]”, for which the “sterilisieren durch Erhitzen” value in series [1] is “ohne Schwierigkeiten”. In the series “Water solubility” (bei Raumtemperatur), the Wasserlöslichkeit is recorded as > 100 % (g/v).
With `COCCOCCOCCOCCOCCOc1c(I)c(C(=O)NC(CO)CO)c(I)c(C(=O)NC(CO)CO)c1I` [Beispiel 3, 5-(3,6,9,12,15-Pentaoxahexadecyl)oxy-2,4,6-trijod-isophthalsäure-bis-(1,3-dihydroxyisopropylamid)], the “sterilisieren durch Erhitzen” value in series [1] is recorded as “ohne Schwierigkeiten”. Besides, in the series “Water solubility” (bei Raumtemperatur), the solubility was over 1000 mg/mL.
As to `COCCOCCOCCOCCOCCOCCOCCOc1c(I)c(C(=O)NC(CO)CO)c(I)c(C(=O)NC(CO)CO)c1I` [Beispiel 4, 5-(3,6,9,12,15,18,21-Heptaoxadocosyl)oxy-2,4,6-trijodisophthalsäure-bis(1,3-dihydroxyisopropylamid)], the “sterilisieren durch Erhitzen” value in series [1] was “ohne Schwierigkeiten”. Further, the solubility in the series “Water solubility” (bei 20 °C) was over 1000 mg/mL.
For `O=C(NC(CO)CO)c1c(I)c(OCCOCCOCCO)c(I)c(C(=O)NC(CO)CO)c1I` [Beispiel 5], the “sterilisieren durch Erhitzen” value in series [1] was “ohne Schwierigkeiten”. Moreover, in the series “Water solubility” (bei Raumtemperatur), the solubility is over 1000 mg/mL.
For the molecule `CN(C[C@H](O)[C@@H](O)[C@H](O)[C@H](O)CO)C(=O)COc1c(I)c(C(=O)NCC(O)CO)c(I)c(C(=O)NCC(O)CO)c1I` (stereo partly drawn) [Beispiel 37, 5-(N-Methyl-N-2,3,4,5,6-pentahydroxyhexyl)aminocarbonylmethoxy-2,4,6-trijodisophthalsäure-bis(2,3-dihydroxypropylamid)], the solubility in the series “Water solubility” (bei 20 °C) was over 1000 mg/mL.
The same measure, in the same setting: for `CN(C[C@H](O)[C@@H](O)[C@H](O)[C@H](O)CO)C(=O)COc1c(Br)c(C(=O)NCC(O)CO)c(Br)c(C(=O)NCC(O)CO)c1Br` (stereo partly drawn) [Beispiel 38, 5-(N-Methyl-N-2,3,4,5,6-pentahydroxyhexyl)aminocarbonylmethoxy-2,4,6-tribromisophthalsäure-bis(2,3-dihydroxypropylamid)] the value was over 1000 mg/mL.
Same read-out and setting: the value for `CN(CC(O)CO)C(=O)COc1c(I)c(C(=O)NC(C)(CO)CO)c(I)c(C(=O)NC(C)(CO)CO)c1I` (stereo not drawn) [Beispiel 39, 5(N-Methyl-N-2,3-dihydroxypropyl)aminocarbonylmethoxy-2,4,6-trijod-isophthalsäure-bis(1,3-dihydroxy-2-methylisopropylamid)] was at least 1000 mg/mL.
In the case of `CCOCCOCCOc1c(I)c(C(=O)N(C)CC(O)CO)c(I)c(C(=O)N(C)CC(O)CO)c1I` (stereo not drawn) [Beispiel 40, 5-(3,6-Dioxaoctyl)oxy-2,4,6-trijodisophthalsäure-bis(N-methyl-N-2,3-dihydroxypropylamid)], the solubility in the series “Water solubility” (bei 25 °C) was over 600 mg/mL.
Consider `CCOCCOCCOc1c(I)c(C(=O)N(CCO)CC(O)CO)c(I)c(C(=O)N(CCO)CC(O)CO)c1I` (stereo not drawn) [Beispiel 41, 5-(3,6-Dioxaoctyl)oxy-2,4,6-trijodisophthalsäure-bis(N-2-hydroxyethyl-N-2,3-dihydroxypropylamid)], for which the solubility in “Water solubility” (bei Raumtemperatur) is over 1000 mg/mL.
On to `CCOCCOCCOc1c(I)c(C(=O)NCC(O)CO)c(I)c(C(=O)NC(CO)CO)c1I` (stereo not drawn) [Beispiel 42, 1-(3-(1,3-Dihydroxyisopropylaminocarbonyl)-5-(2,3-dihydroxypropylamino-carbonyl)-2,4,6-trijod-phenoxy)-3,6-dioxaoctan], for which the solubility in the series “Water solubility” (no temperature stated) was over 500 mg/mL.
With `O=C(NC(CO)CO)c1c(I)c(OCCOCCOCCOc2c(I)c(C(=O)NC(CO)CO)c(I)c(C(=O)NC(CO)CO)c2I)c(I)c(C(=O)NC(CO)CO)c1I` [Beispiel 43, 1,8-Bis-(3,5-bis(1,3-dihydroxyisopropylaminocarbonyl)-2,4,6-trijod-phenoxy)-3,6-dioxaoctan], in “Water solubility” (setting [2]), the Wasserlöslichkeit result is “Wenig löslich in Wasser”.
Still for that read-out and setting: for `O=C(NCC(O)CO)c1c(I)c(OCCOCCOCCOc2c(I)c(C(=O)NCC(O)CO)c(I)c(C(=O)NCC(O)CO)c2I)c(I)c(C(=O)NCC(O)CO)c1I` (stereo not drawn) [Beispiel 44, 1,8-Bis-(3,5-bis(2,3-dihydroxypropylaminocarbonyl)-2,4,6-trijod-phenoxy)-3,6-dioxan] the value was “Wenig löslich in Wasser”; for `O=C(NCC(O)CO)c1c(I)c(OCCOCCOCCOCCOCCOc2c(I)c(C(=O)NCC(O)CO)c(I)c(C(=O)NC(CO)CO)c2I)c(I)c(C(=O)NC(CO)CO)c1I` (stereo not drawn) [Beispiel 45, 1,14-Bis-(3-(1,3-dihydroxyisopropylaminocarbonyl)-5-(2,3-dihydroxy-propylaminocarbonyl)-2,4,6-trijodphenoxy)-3,6,9,12-tetraoxatetradecan], “gut wasserlöslich”; for `O=C(COc1c(I)c(C(=O)NC(CO)CO)c(I)c(C(=O)NC(CO)CO)c1I)NCCNC(=O)COc1c(I)c(C(=O)NC(CO)CO)c(I)c(C(=O)NC(CO)CO)c1I` [Beispiel 46, 1,2-Bis-(3,5-bis(1,3-dihydroxyisopropylaminocarbonyl)-2,4,6-trijod-phenoxy-acetylamino)-ethan], “kaum löslich in Wasser”.
Still for that read-out and setting: the value for `O=C(COc1c(I)c(C(=O)NC(CO)CO)c(I)c(C(=O)NC(CO)CO)c1I)NCC(O)C(O)CNC(=O)COc1c(I)c(C(=O)NC(CO)CO)c(I)c(C(=O)NC(CO)CO)c1I` (stereo not drawn) [Beispiel 47, 1,4-Bis-(3,5-bis(1,3-dihydroxyisopropylaminocarbonyl)-2,4,6-trijod-phenoxy-acetylamino)-2,3-dihydroxybutan] was “wasserlöslich”; that for `O=C(COc1c(I)c(C(=O)NCC(O)CO)c(I)c(C(=O)NCC(O)CO)c1I)NC(CO)CO` (stereo not drawn) [Beispiel 48, 5-(1,3-Dihydroxyisopropylaminocarbonyl)methoxy-2,4,6-trijodisophthal-säure-bis(2,3-dihydroxypropylamid)] was “leicht löslich in Wasser”; that for `O=C(COc1c(I)c(C(=O)NC(CO)CO)c(I)c(C(=O)NC(CO)CO)c1I)NCC(O)CO` (stereo not drawn) [Beispiel 49, 5-(2,3-Dihydroxypropylaminocarbonyl)methoxy-2,4,6-trijodisophthalsäure-bis(1,3-dihydroxyisopropylamid)] was “leicht löslich in Wasser”.
For `COC(=O)[C@@H](C)Oc1c(Br)c(C(=O)NC(CO)CO)c(Br)c(C(=O)NC(CO)CO)c1Br` [R(+)-5(1(Methoxycarbonyl)ethoxy)-2,4,6-tribromisophthalsäure-bis(1,3-di-hydroxyisopropylamid)], the Wasserlöslichkeit entry in “Water solubility” (setting [2]) was “sehr gut wasserlösliche”.
With `COC(=O)[C@@H](C)Oc1c(I)c(C(=O)NC(CO)CO)c(I)c(C(=O)NC(CO)CO)c1I` [R(+)-5(1(Methoxycarbonyl)ethoxy-IPSA], in “Water solubility” (bei 25 °C), the solubility is about 800 mg/mL (≈ 1010 mM).
For the molecule “R(+)-5-(1(1,3-Dihydroxyisopropylaminocarbonyl)ethoxy)-2,4,6-tribromiso- phthalsäure-bis(1,3-dihydroxyisopropylamid) [Beispiel 13]”, the Wasserlöslichkeit is listed as 5 % (g/v) in “Water solubility” (bei 20 °C) and 100 % (g/v) in the series “Water solubility” (bei 100 °C).
